Measurements reported in US8992982B2, “Formulation of indomethacin” (Iceutica Pty Ltd., priority 2009, dated 2015).

Assays:
[1] = system: pain after surgical removal of impacted third molars; assay: Phase 2 dental pain study: 2-stopwatch method (time to onset of analgesia, first perceptible and meaningful pain relief); format: in vivo, human; conditions: ITT
Procedure: Subjects assessed their baseline pain intensity (VAS) before receiving study drug (predose, Time 0) and their pain intensity (VAS) and pain relief (5-point categorical scale) at 15, 30, and 45 minutes and 1, 1.5, 2, 3, 4, 5, 6, 7, and 8 hours after Time 0 and immediately before the first dose of rescue medication. The 2-stopwatch method was used to record the time to perceptible and time to meaningful pain relief, respectively. Acetaminophen (1000 mg) was permitted as the initial rescue medication. Subjects were encouraged to wait at least 60 minutes after receiving study drug before taking rescue medication. […] Other restrictions included the following: no alcohol use from 24 hours before surgery until discharge on Day 1; nothing by mouth (NPO) from midnight before surgery until 1 hour after surgery; clear liquids only from 1 hour after surgery until 1 hour after dosing; and advancement of diet 1 hour after dosing according to standard practice.
The secondary efficacy endpoints were as follows: • TOTPAR over 0 to 4 hours (TOTPAR-4) after Time 0 • Visual Analogue Scale (VAS) pain intensity difference (VASPID) at each scheduled time point after Time 0 • Time to onset of analgesia (measured as time to perceptible pain relief confirmed by meaningful pain relief) • VAS pain intensity score at each scheduled time point • VAS summed pain intensity difference (VASSPID) over 0 to 4 hours (VASSPID-4) and over 0 to 8 hours (VASSPID-8) after Time 0 • Pain relief score at each scheduled time point after Time 0 • Peak pain relief • Time to peak pain relief • Time to first perceptible pain relief • Time to meaningful pain relief • Proportion of subjects using rescue medication • Time to first use of rescue medication (duration of analgesia) • Patient's global evaluation of study drug Safety:
For each time-to-event endpoint, the Kaplan-Meier method was used to evaluate the treatment effect. Time to onset of analgesia (measured as time to perceptible pain relief confirmed by meaningful pain relief) was based on data collected using the 2-stopwatch method. […] A summary table provided the number of subjects analyzed, the number of subjects censored, estimates for the quartiles, and 95% confidence intervals (CIs) for the estimated median. P values from log-rank tests were also used to examine treatment effect. Cox proportional hazard models were used to explore potential covariates such as sex, baseline pain intensity, and surgical trauma rating, if appropriate.

[2] = Phase 2 dental pain study: safety (TEAEs, vital signs); format: in vivo, human; conditions: Safety population
Procedure: Efficacy was assessed during the 8 hours after Time 0. Safety was assessed by the incidence of treatment-emergent AEs (TEAEs) and changes in vital sign measurements.
The safety endpoints were the incidence of TEAEs and changes in vital sign measurements.
Protocol-specified safety data were provided in by-subject listings. The Medical Dictionary for Regulatory Activities (MedDRA) (version 11.0) was used to classify all AEs with respect to system organ class and preferred term. Adverse event summaries included only TEAEs, which were summarized by incidence, severity, and relationship to study drug for each treatment group. The Cochran-Mantel-Haenszel test was used to compare the rates of occurrence between the placebo and Indomethacin Nanoformulation Capsule groups for all TEAEs. A list of AEs leading to study discontinuation, along with the summaries described above, was also provided.
Vital sign measurements were summarized using descriptive statistics (mean, standard deviation [SD], median, minimum, and maximum) at each scheduled time point for each treatment group. Changes from Baseline for vital signs were calculated for each subject and summarized for each treatment group at each scheduled time point after Baseline. No formal statistical tests were performed.

## Cc1ccc(-c2cc(C(F)(F)F)nn2-c2ccc(S(N)(=O)=O)cc2)cc1 [Celecoxib]
[1]; 400 mg
  Hazard ratio vs placebo, Cox proportional hazards model (time to first perceptible pain relief): 1.7
  Hazard ratio vs placebo, Cox proportional hazards model (time to meaningful pain relief): 3.2
  Time to first perceptible pain relief: subjects analyzed, %: (92.2) %
  Time to first perceptible pain relief: subjects censored, %: (7.8) %
  Time to meaningful pain relief: subjects analyzed, %: (68.6) %
  Time to meaningful pain relief: subjects analyzed, n: 35
  Time to meaningful pain relief: subjects censored, %: (31.4) %
  Time to meaningful pain relief: subjects censored, n: 16
[1]; Cox proportional hazards model, vs placebo
  Time to onset of analgesia, Hazard ratio: 4.4
[1]
  Time to onset of analgesia: subjects analyzed: (68.6) %
[1]; Kaplan-Meier estimate, 400 mg
  Time to first perceptible pain relief, Mean: 0.9 h
  Time to first perceptible pain relief, Q25: 0.35 h
  Time to first perceptible pain relief, Q50: 0.60 h
  Time to first perceptible pain relief, Q75: 0.97 h
  Time to meaningful pain relief, Mean: 2.6 h
  Time to meaningful pain relief, Q25: 0.75 h
  Time to meaningful pain relief, Q50: 1.33 h
  Time to meaningful pain relief, Q75: 4.27 h
[1]; Kaplan-Meier estimate
  Time to onset of analgesia, Mean: 0.9 h
  Time to onset of analgesia, Q25: 0.38 h
  Time to onset of analgesia, Q50: 0.72 h
[1]; right-censored at 8 hours
  Time to onset of analgesia: subjects censored: (31.4) %
[2]
  Subjects with ≧1 severe TEAE: (5.9) %
  Subjects with ≧1 treatment-related TEAE: (2.0) %
[2]; n
  Subjects who died: 0
  Subjects who discontinued due to a TEAE: 0
  Subjects with ≧1 SAE: 0
